We go through 22 compounds from patent US10925848B2, “Amide derivative” (Daiichi Sankyo Company, Limited, priority 2017, dated 2021).

tryptophanase of Bacteroides tetaiotaomicron, sequence (Q8A7N2 entry or part of it, change not shown): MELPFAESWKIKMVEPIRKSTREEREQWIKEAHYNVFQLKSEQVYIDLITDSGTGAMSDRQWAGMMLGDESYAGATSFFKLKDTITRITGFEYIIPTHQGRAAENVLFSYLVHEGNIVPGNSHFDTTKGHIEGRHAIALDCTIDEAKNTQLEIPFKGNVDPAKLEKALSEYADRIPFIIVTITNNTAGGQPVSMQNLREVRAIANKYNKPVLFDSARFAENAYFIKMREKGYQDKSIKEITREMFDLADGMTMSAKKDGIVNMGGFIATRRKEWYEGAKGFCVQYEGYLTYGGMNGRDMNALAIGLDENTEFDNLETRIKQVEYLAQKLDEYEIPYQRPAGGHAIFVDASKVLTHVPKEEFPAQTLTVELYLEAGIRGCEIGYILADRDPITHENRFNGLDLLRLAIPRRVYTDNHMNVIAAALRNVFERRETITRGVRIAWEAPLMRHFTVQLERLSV

This test addresses tryptophanase of Bacteroides tetaiotaomicron (Bacteroides thetaiotaomicron, UniProt Q8A7N2). In words: Tryptophanase enzyme inhibitory activity (LDH-coupled NADH loss). In kind it is biochemical. The following applies: 10 mM L-tryptophan, 30 min preincubation at 37° C., absorbance at 340 nm. As for the experimental part:
Tryptophanase inhibitory activity was evaluated by a method using lactate dehydrogenase (LDH). The reaction time-dependent reduction in NADH conjugated with the enzymatic reaction, with LDH, of pyruvic acid produced through the enzymatic reaction of L-tryptophan as a substrate with tryptophanase, was measured with a spectrophotometer (Phillips-R S et al., Biochemistry, 23, 6228-6234 (1984)). Enzyme inhibitory activity obtained without adding a test compound (by adding DMSO alone) in the presence of tryptophanase was used as a control. As the enzyme, tryptophanase of Bacteroides tetaiotaomicron (Genbank accession number: HC914434.1) was used.
A test compound solution was prepared by dissolving each test compound in DMSO at concentrations (from 30 mM to 30 nM at 10-fold common ratio). LDH, NADH and L-tryptophan were dissolved, using distilled water, respectively to concentrations of 80 units/mL, 10 mM and 50 mM. Bacteroides tryptophanase was prepared to 30 mg/mL. A potassium phosphate buffer was used as the buffer.
A reaction solution A was dispensed at 284.8 μL per well into a 96-well plate, and the test compound solution was added at 3.2 μL per well to obtain a final concentration of 1/100 (reaction solution B). The reaction solution B was incubated at 37° C. for 30 minutes, L-tryptophan was added thereto at 32 μL per well to obtain a final concentration of […] (reaction solution C), and the enzyme reaction was performed at 37° C. over 30 minutes with absorbance at 340 nm measured for monitoring the NADH loss. Based on the NADH loss, the tryptophanase inhibitory activity of the compound was evaluated.
One may read the IC50 as the concentration that inhibits the measured activity by half. Higher therefore signals weaker potency in that assay. As to `CC[C@](C)(NC(=O)c1cc(I)c(N)cc1OC)C(=O)O` [Compound of Example 18, (+)-N-(4-Amino-5-iodo-2-methoxybenzoyl)-L-isovaline], the IC50 is 100 nM. That is a sub-micromolar value. `CCC(NC(=O)c1ccc(N)c(Cl)c1)(C(=O)O)C1CC1` (stereo not shown) [Compound of Example 5, 2-[(4-Amino-3-chlorobenzoyl)amino]-2-cyclopropyl butanoic Acid]: it took 1000 nM to reach half-maximal inhibition (IC50).

`CCC(CC)(NC(=O)c1cc(F)c(N)c(Cl)c1)C(=O)O` [Compound of Example 7, 2-[(4-Amino-3-chloro-5-fluorobenzoyl)amino]-2-ethylbutanoic Acid] yielded a 50% inhibitory concentration (IC50) of 6900 nM. Compound `CC[C@@](C)(NC(=O)c1cc(F)c(N)cc1OC)C(=O)O` [Compound of Example 30, (−)-N-(4-Amino-5-fluoro-2-methoxybenzoyl)-D-isovaline] displayed a half-maximal inhibitory concentration (IC50) of 5610 nM. This IC50 and that of the compound before are within 1.5-fold of each other. The compound `CCOc1cc(N)c(I)cc1C(=O)N[C@](C)(CC)C(=O)O` [Compound of Example 22, (−)-N-(4-Amino-2-ethoxy-5-iodobenzoyl)-D-isovaline] came in with an IC50 of 80 nM. The same measure for `CCOc1cc(N)c(C#N)cc1C(=O)N[C@](C)(CC)C(=O)O` [Compound of Example 29, (−)-N-(4-Amino-5-cyano-2-ethoxybenzoyl)-D-isovaline]: 20 nM; for `CCCOc1cc(N)c(F)cc1C(=O)NC(C)(C)C(=O)O` [Compound of Example 32, N-(4-Amino-5-fluoro-2-propoxybenzoyl)-2-methylalanine]: 540 nM. The compound `CC[C@@](C)(NC(=O)c1cc(Cl)c(N)cc1OC(F)F)C(=O)O` [Compound of Example 31, (−)-N-[4-Amino-5-chloro-2-(difluoromethoxy)benzoyl]-D-isovaline] displayed an IC50 of 110 nM. Compared with the last compound, the IC50 is about 4.9-fold lower. Turning to `CC[C@](C)(NC(=O)c1cc(Br)c(N)cc1OC)C(=O)O` [Compound of Example 17, (+)-N-(4-Amino-5-bromo-2-methoxybenzoyl)-L-isovaline], the half-maximal inhibitory concentration (IC50) worked out at 140 nM. As to `CCOc1cc(N)c(Cl)cc1C(=O)N[C@@](C)(CC)C(=O)O` [Compound of Example 13, (+)-N-(4-Amino-5-chloro-2-ethoxybenzoyl)-L-isovaline], the concentration for half-maximal inhibition (IC50) turned out to be 80 nM.

In the case of `CCCOc1cc(N)c(Cl)cc1C(=O)NC(C)(C)C(=O)O` [Compound of Example 14, N-(4-Amino-5-chloro-2-propoxybenzoyl)-2-methylalanine], the IC50 turned out to be 200 nM. For `CCC(CC)(NC(=O)c1cc(C)c(N)c(C)c1)C(=O)O` [Compound of Example 3, 2-[(4-Amino-3,5-dimethylbenzoyl)amino]-2-ethylbutanoic Acid] the value was 8000 nM; for `CCC(CC)(NC(=O)c1ccc(N)c(C)c1)C(=O)O` [Compound of Example 2, 2-[(4-Amino-3-methylbenzoyl)amino]-2-ethylbutanoic Acid], 7800 nM. Compound `CCOc1cc(N)c(Br)cc1C(=O)N[C@@](C)(CC)C(=O)O` [Compound of Example 19, (+)-N-(4-Amino-5-bromo-2-ethoxybenzoyl)-L-isovaline] came in with a 50% inhibitory concentration (IC50) of 60 nM. `CC[C@](C)(NC(=O)c1cc(Cl)c(N)cc1OC)C(=O)O` [Compound of Example 12, (+)-N-(4-Amino-5-chloro-2-methoxybenzoyl)-L-isovaline]: the midpoint of inhibition, the IC50, lay at 310 nM. The same measure for `CC[C@@](C)(NC(=O)c1cc(C(F)(F)F)c(N)cc1OC)C(=O)O` [Compound of Example 26, (−)-N-(4-Amino-2-methoxy-5-(trifluoromethyl)benzoyl)-D-isovaline]: 840 nM; for `CC(C)Oc1cc(N)c(Cl)cc1C(=O)NC(C)(C)C(=O)O` [Compound of Example 9, N-[4-Amino-5-chloro-2-(propan-2-yloxy)benzoyl)-2-methylalanine]: 390 nM. As to `CCC(NC(=O)c1ccc(N)c(C)c1)(C(=O)O)C1CC1` (stereo not shown) [Compound of Example 4, 2-[(4-Amino-3-methylbenzoyl)amino]-2-cyclopropyl butanoic Acid], the 50% inhibitory concentration (IC50) was 1700 nM. Against the preceding compound, the IC50 is about 4.4-fold higher.

For the compound `CC[C@@](C)(NC(=O)c1cc(C)c(N)cc1OC)C(=O)O` [Compound of Example 28, N-(4-Amino-2-methoxy-5-methylbenzoyl)-D-isovaline], the half-inhibitory concentration (IC50) was determined as 3130 nM.

`CCC(CC)(NC(=O)c1ccc(N)cc1)C(=O)O` [Compound of Example 1, 2-[(4-Aminobenzoyl)amino]-2-ethylbutanoic Acid] gave a half-maximal inhibitory concentration (IC50) of 27100 nM. Against the preceding compound, the IC50 is about 8.7-fold higher. `CCOc1cc(N)c(I)cc1C(=O)N[C@@](C)(CC)C(=O)O` [Compound of Example 20, (+)-N-(4-Amino-2-ethoxy-5-iodobenzoyl)-L-isovaline] gave a half-maximal inhibitory concentration (IC50) of 50 nM. `CCOc1cc(N)c(Cl)cc1C(=O)NC(C)(C)C(=O)O` [Compound of Example 8, N-(4-Amino-5-chloro-2-ethoxybenzoyl)-2-methylalanine] showed an IC50 of 1300 nM.
